US12171807B2, “Use of bremelanotide in patients with controlled hypertension” (Cosette Pharmaceuticals, Inc., priority 2020, dated 2024)

What was measured:
[1] = Pressor effect in obese women receiving supratherapeutic doses (6.5 mg daily) for 15 days; format: in vivo, human; conditions: 15 days at 6.5 mg daily
[2] = Repeat dosing ambulatory blood pressure monitoring study, bremelanotide 1.75 mg SC daily for 8 days then randomized withdrawal (days 9 to 16); format: in vivo, human; conditions: after 16 days of dosing of bremelanotide 1.75 mg SC
[3] = Blood pressure by time post-dose, Bremelanotide 2 mg SC vs placebo; format: in vivo; conditions: 2 mg SC (n = 30)
[4] = repeat doses of BMT; review of IND 64119; cited from earlier work
[5] = Drug-drug interaction study with antihypertensive agents, single dose bremelanotide 1.75 mg SC vs placebo, ambulatory BP monitoring; format: in vivo, human
Description: An additional study evaluated the effects of single doses of bremelanotide 1.75 mg SC and placebo SC in normotensive, healthy women pre-treated with 5 different classes of antihypertensive drugs in a double-blind cross-over design using ambulatory BP monitoring. The washout period between randomized, blinded treatments was 48 hours. This study included both premenopausal and postmenopausal women. There were 15 healthy […] subjects in each panel of the antihypertensive medications with the exception of the beta-blocker metoprolol (n=17). Blood pressures at baseline in the various panels were low normal (24 hour systolic BPs ranging from 109 to 114 mmHg and 24 hour diastolic BPs ranging from 67 to 72 mmHg (FIG. 2). The placebo-corrected changes from baseline in the 24-hour systolic BPs on bremelanotide 1.75 mg SC ranged from 1.7 mmHg on amlodipine to 3.8 mmHg on hydrochlorothiazide; changes in the 24 hour diastolic BPs ranged from 1.8 mmHg on metoprolol to 2.8 mmHg on lisinopril. In 4 of the 5 classes of antihypertensive medications, nighttime BP changes were substantially lower than daytime BP changes. In study participants pre-treated with hydrochlorothiazide 12.5 mg daily, nighttime BPs increased by 5.5/4.5 mmHg. In review of individual subjects in the HCTZ panel, it was noted that 4 study participants had large reductions in nighttime SBP (10-15 mmHg) on placebo while on bremelanotide 4 study participants had large increases in nighttime SBP (10-15 mmHg).
1. […] There was an elevation in nighttime BP in patients pre-treated with hydrochlorothiazide 12.5 mg, which has no apparent pharmacologic basis and is like the result of random variability in both the bremelanotide and placebo sub-groups. As noted, there was no similar finding in the 4 other antihypertensive panels.

[6] = Repeat dosing ambulatory blood pressure monitoring study, bremelanotide 1.75 mg SC daily for 8 days then randomized withdrawal (days 9 to 16); format: in vivo, human; conditions: for mean change (95% CI) in daytime systolic BP: day 8; for Difference from Baseline, daytime diastolic BP at Day 8 / Difference from Baseline, daytime systolic BP at Day 8: BP in mmHg
Description: The study focusing on the impact of repeat dosing on blood pressure included 127 women treated with bremelanotide 1.75 mg administered subcutaneously (SC) daily for 8 consecutive days, followed by a randomized withdrawal period of 8 additional consecutive days (days 9 to 16) in which study participants were randomized to either remain on bremelanotide 1.75 mg SC daily or placebo SC daily. Ambulatory blood pressure monitoring was performed on baseline day −1 (single blind placebo), day 8 and on day 16. After 8 days of dosing of bremelanotide 1.75 mg SC, the mean changes from baseline in the 24 hour systolic and diastolic BPs (FIG. 1) were below 2 mmHg. Importantly, the upper bound of the 95% confidence interval for the mean changes in daytime systolic BP (a pre-specified outcome) was below 4 mmHg. These increases in BP were accompanied by small to no reductions in the heart rate of 1 beat/minute or less.
There were 122 (96%) study participants who completed the randomized withdrawal portion of the study. […] In those randomized to placebo, returns toward baseline BP values were observed (generally a 2 mmHg decline from day 8).
The patient population was comprised of normotensive premenopausal women and included 2 women with a medical history of hypertension on antihypertensive therapy. One subject was being treated for hypertension with Lisinopril. The other subject was being treated for hypertension with chlorthalidone. Both subjects received all 16 injections; 8 doses in the Open-Label Period and 8 doses in the Randomized Withdrawal Period (one subject was randomized to each treatment group). […] The mean changes from Baseline (Day −1) at Day 8 during daytime in these two subjects are shown in the below table. Changes in daytime HR at Day 8 were −1.7 bpm for the subject and −1.4 bpm for the subject.
In order to better understand the potential effects of the drug in patients with higher BP values at baseline, an exploratory analysis was performed from the trial evaluating those women whose baseline BP was in the 90th percentile (pre-dose systolic BP >124 mmHg) to determine if the pressor response of bremelanotide differed from those study participants whose baseline BP was below the 90th percentile (pre-dose systolic BP <124 mmHg). At day 8, mean changes (95% CI) from the daytime systolic BP in those study participants in the 90th percentile or greater (n=17) at baseline was −0.16 (−2.06, 1.75) mmHg versus 2.03 (1.70, 2.36) mmHg in those whose baseline systolic BP was below the 90th percentile.

[7] = single dose 1.75 mg SC, pre-treated with hydrochlorothiazide 12.5 mg daily
[8] = 2 women with history of hypertension on antihypertensive therapy
[9] = 61 women, 1.75 mg SC for 16 consecutive days
[10] = following 8 consecutive days of dosing
[11] = subject treated with Lisinopril
[12] = subject treated with chlorthalidone
[13] = subject with hypertension treated with Lisinopril, baseline (Day −1) 105/70 mmHg
[14] = subject with hypertension treated with chlorthalidone, baseline (Day −1) 121/81 mmHg

## CCCC[C@H](NC(C)=O)C(=O)N[C@H]1CC(=O)NCCCC[C@@H](C(=O)O)NC(=O)[C@H](Cc2c[nH]c3ccccc23)NC(=O)[C@H](CCCN=C(N)N)NC(=O)[C@@H](Cc2ccccc2)NC(=O)[C@H](Cc2cnc[nH]2)NC1=O [bremelanotide, Ac-Nle-cyclo(-Asp-His-D-Phe-Arg-Trp-Lys)-OH]
[1]
  cumulative effect on blood pressure or heart rate: no evidence for a cumulative effect on blood pressure or heart rate
[2]
  daytime systolic BP change by baseline BP percentile, trend: Trends were similar
[3]; Hour 1 post-dose
  Diastolic Blood Pressure: 1.00 (−3.13, 5.13)
  Systolic Blood Pressure: 2.36 (−2.15, 6.87)
[3]; Hour 2 post-dose
  Diastolic Blood Pressure: 1.03 (−2.96, 5.02)
  Systolic Blood Pressure: 0.01 (−4.18, 4.20)
[3]; Hour 3 post-dose
  Diastolic Blood Pressure: 1.26 (−2.74, 5.26)
  Systolic Blood Pressure: 0.84 (−3.55, 5.23)
[3]; Hour 4 post-dose
  Diastolic Blood Pressure: −1.38 (−6.00, 3.24)
  Systolic Blood Pressure: 0.38 (−3.13, 3.90)
[4]
  duration of blood pressure effect: at least four hours
  increases in systolic and diastolic blood pressures: approximately 4 mmHg
[5]; 4 study participants of the HCTZ panel on bremelanotide
  large increases in nighttime SBP in individual subjects: 10-15 mmHg
[5]; single dose 1.75 mg SC, healthy women on antihypertensive therapy at steady-state
  induction of hypertension by BP increases: did not induce hypertension
[5]; [7]
  nighttime BP increase, diastolic: 4.5 mmHg
  nighttime BP increase, systolic: 5.5 mmHg
[5]; single dose 1.75 mg SC, women pre-treated with amlodipine
  placebo-corrected change from baseline in 24-hour systolic BP: 1.7 mmHg
[5]; single dose 1.75 mg SC, women pre-treated with hydrochlorothiazide
  placebo-corrected change from baseline in 24-hour systolic BP: 3.8 mmHg
[5]; single dose 1.75 mg SC, women pre-treated with lisinopril
  placebo-corrected change from baseline in 24 hour diastolic BP: 2.8 mmHg
[5]; single dose 1.75 mg SC, women pre-treated with metoprolol
  placebo-corrected change from baseline in 24 hour diastolic BP: 1.8 mmHg
[6]; 1.75 mg SC daily
  outlier analysis: systolic BP elevation of >150 mmHg or diastolic BP elevation >95 mmHg lasting for 120 minutes: 1 (0.8%) study participants (%)
  outlier analysis: systolic BP elevation of >160 mmHg or diastolic BP elevation of >100 mmHg lasting more than 90 minutes: 2 (1.6%) study participants (%)
[6]; [8]
  abnormalities on ECG: neither subject had clinically significant abnormalities on ECG
  cardiovascular TEAE: No cardiovascular TEAE were reported
  intensity of TEAE: all were mild in intensity
[6]; [9]
  increases in 24 hour BP from placebo baseline (Day −1): < 1 mmHg
  increases in average daytime BPs from placebo baseline (Day −1): < 1.5 mmHg
[6]; 16 days of consecutive administration
  cumulative effect on daytime BP or heart rate compared to baseline or day 8: no cumulative increases in daytime BP or reductions in heart rate
[6]; after 8 days of 1.75 mg SC daily
  reductions in the heart rate: ≤ 1 beat/minute
[6]; after 8 days of 1.75 mg SC daily, 127 women
  mean change from baseline in 24 hour diastolic BP: below 2 mmHg
[6]; baseline BP in the 90th percentile or greater (pre-dose systolic BP >124 mmHg), n=17
  mean change (95% CI) in daytime systolic BP: −0.16 (−2.06, 1.75) mmHg
[6]; baseline systolic BP below the 90th percentile
  mean change (95% CI) in daytime systolic BP: 2.03 (1.70, 2.36) mmHg
[6]; [10]
  time of peak effects on BP post-dose: 3 to 5 h
  time post-dose by which BP effect attenuated: ≤ 8 h
[6]; following 8 days of consecutive therapy
  nighttime BP: no increases in nighttime BP
[6]; outlier subjects
  complications or symptoms associated with transient stage 2 hypertension levels: In none of these subjects were there complications or symptoms
[6]; [11]
  Change in daytime HR at Day 8: −1.7 bpm
  Difference from Baseline, daytime diastolic BP at Day 8: +4 diastolic
  Difference from Baseline, daytime systolic BP at Day 8: +3 systolic;
[6]; [12]
  Change in daytime HR at Day 8: −1.4 bpm
  Difference from Baseline, daytime diastolic BP at Day 8: −4 diastolic
  Difference from Baseline, daytime systolic BP at Day 8: −9 systolic;
[6]; [13]
  Day 8 Daytime BP, diastolic: 74 mmHg
  Day 8 Daytime BP, systolic: 108 mmHg
[6]; [14]
  Day 8 Daytime BP, diastolic: 77 mmHg
  Day 8 Daytime BP, systolic: 112 mmHg
